#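 Cells were grown in 96-well plates and exposed to each compound for 48 hours at five concentrations; endpoints were interpolated linearly between bracketing concentrations, or set to the highest concentration if not reached. GI50: concentration for 50% inhibition of growth.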 The source made the active and inactive calls. Rule as the data show it: active = GI50 up to about 1.1 µM and inactive = higher.
# What was measured:
# Assay in all cases: NCI anticancer screen, dose series, 48 h
# A549 = test system: A549
# ACHN = test system: ACHN
# EKVX = test system: EKVX
# HCT-116 = test system: HCT-116
# HOP-62 = test system: HOP-62
# K562 = test system: K562
# MOLT-4 = test system: MOLT-4
# OVCAR-8 = test system: OVCAR-8
# RPMI-8226 = test system: RPMI-8226
# SNB-19 = test system: SNB-19
# SR = test system: SR
# TK-10 = test system: TK-10
# UACC-257 = test system: UACC-257
# OVCAR-4 = test system: OVCAR-4
# UACC-62 = test system: UACC-62
Structure (SMILES),GI50 (A549),GI50 (ACHN),GI50 (EKVX),GI50 (HCT-116),GI50 (HOP-62),GI50 (K562),GI50 (MOLT-4),GI50 (OVCAR-8),GI50 (RPMI-8226),GI50 (SNB-19),GI50 (SR),GI50 (TK-10),GI50 (UACC-257),GI50 (OVCAR-4),GI50 (UACC-62)
C=CN1C(=O)[C@H](Oc2ccccc2)[C@@H]1c1ccccc1,26.8 µM (inactive),32 µM (inactive),47.8 µM (inactive),24.9 µM (inactive),32.7 µM (inactive),36.3 µM (inactive),36.6 µM (inactive),23.8 µM (inactive),20.3 µM (inactive),33.6 µM (inactive),40.3 µM (inactive),37.2 µM (inactive),41.5 µM (inactive),,
C=C1C(=O)OC2/C=C(/C)C3CC(O)C(C)(CC(OC(=O)/C(C)=C/C)C12)O3 (stereo unspecified),6.61 µM (inactive),2.49 µM (inactive),3.86 µM (inactive),1.53 µM (inactive),25.1 µM (inactive),1.69 µM (inactive),1.91 µM (inactive),1.83 µM (inactive),1.83 µM (inactive),1.97 µM (inactive),,8.24 µM (inactive),4.25 µM (inactive),7.55 µM (inactive),2.03 µM (inactive)
COC(=O)[C@H]1C=C[C@@H](C)n2c(=O)c3ccccc3c(=O)n21,> 100 µM (inactive),> 100 µM (inactive),> 100 µM (inactive),> 100 µM (inactive),> 100 µM (inactive),> 100 µM (inactive),> 100 µM (inactive),> 100 µM (inactive),> 100 µM (inactive),> 100 µM (inactive),> 100 µM (inactive),> 100 µM (inactive),> 100 µM (inactive),> 100 µM (inactive),
CCOC(=O)NC(=O)c1cn(CCCOC(=O)NCCCCCCNC(=O)OCCCn2cc(C(=O)NC(=O)OCC)c(=O)[nH]c2=O)c(=O)[nH]c1=O,> 100 µM (inactive),18.7 µM (inactive),> 100 µM (inactive),35.1 µM (inactive),40.1 µM (inactive),7.67 µM (inactive),36.3 µM (inactive),31.3 µM (inactive),14.1 µM (inactive),28.6 µM (inactive),,29.8 µM (inactive),19.2 µM (inactive),7.4 µM (inactive),20.1 µM (inactive)
COc1cc2c(c(OC)c1OC)-c1ccc(SC)c(=O)cc1[C@@H](NC(=O)c1cccc([N+](=O)[O-])c1)CC2,,0.0489 µM (active),0.0386 µM (active),0.0174 µM (active),0.0257 µM (active),< 0.01 µM (active),0.0202 µM (active),0.024 µM (active),0.0208 µM (active),,,0.047 µM (active),< 0.01 µM (active),13.1 µM (inactive),0.0292 µM (active)
CC(=O)CC(=O)CCC(=O)Nc1cccc(C(F)(F)F)c1,> 100 µM (inactive),> 100 µM (inactive),> 100 µM (inactive),> 100 µM (inactive),> 100 µM (inactive),> 100 µM (inactive),> 100 µM (inactive),> 100 µM (inactive),> 100 µM (inactive),> 100 µM (inactive),,> 100 µM (inactive),> 100 µM (inactive),> 100 µM (inactive),> 100 µM (inactive)
CNC1=Nc2ccc(Cl)cc2C(OP(=O)(N2CCOCC2)N2CCOCC2)=NC1,> 100 µM (inactive),> 100 µM (inactive),84.9 µM (inactive),> 100 µM (inactive),,> 100 µM (inactive),> 100 µM (inactive),> 100 µM (inactive),> 100 µM (inactive),> 100 µM (inactive),> 100 µM (inactive),> 100 µM (inactive),> 100 µM (inactive),> 100 µM (inactive),> 100 µM (inactive)
COC1(C)CNCC(C)(C)NC(=O)C(C)(OC)CNCC(C)(C)NC1=O (stereo unspecified),> 100 µM (inactive),> 100 µM (inactive),> 100 µM (inactive),> 100 µM (inactive),> 100 µM (inactive),> 100 µM (inactive),> 100 µM (inactive),> 100 µM (inactive),> 100 µM (inactive),> 100 µM (inactive),,> 100 µM (inactive),> 100 µM (inactive),> 100 µM (inactive),> 100 µM (inactive)
CCC(=O)c1c(NOC2OC(COC(C)=O)C(OC(C)=O)C(OC(C)=O)C2OC(C)=O)nc(OC)n(C)c1=O (stereo unspecified),> 100 µM (inactive),> 100 µM (inactive),> 100 µM (inactive),> 100 µM (inactive),> 100 µM (inactive),> 100 µM (inactive),> 100 µM (inactive),> 100 µM (inactive),,> 100 µM (inactive),> 100 µM (inactive),> 100 µM (inactive),,> 100 µM (inactive),> 100 µM (inactive)
Nc1ncnc2c1ncn2C1OC(CSCc2ccc(Cl)cc2)C(O)C1O (stereo unspecified),43.1 µM (inactive),34.9 µM (inactive),81.7 µM (inactive),19.8 µM (inactive),17 µM (inactive),30 µM (inactive),10.7 µM (inactive),42.7 µM (inactive),21.8 µM (inactive),35.9 µM (inactive),,55 µM (inactive),31.3 µM (inactive),35.6 µM (inactive),46.9 µM (inactive)
